Measured values: BindingDB's records for patent US12384753 (Enanta Pharmaceuticals, 2025)
pIC50: −log10 of the molar value.

Target: T1, 17-beta-hydroxysteroid dehydrogenase 13 (Homo sapiens, UniProt Q7Z5P4)
T1 sequence (Q7Z5P4 whole entry): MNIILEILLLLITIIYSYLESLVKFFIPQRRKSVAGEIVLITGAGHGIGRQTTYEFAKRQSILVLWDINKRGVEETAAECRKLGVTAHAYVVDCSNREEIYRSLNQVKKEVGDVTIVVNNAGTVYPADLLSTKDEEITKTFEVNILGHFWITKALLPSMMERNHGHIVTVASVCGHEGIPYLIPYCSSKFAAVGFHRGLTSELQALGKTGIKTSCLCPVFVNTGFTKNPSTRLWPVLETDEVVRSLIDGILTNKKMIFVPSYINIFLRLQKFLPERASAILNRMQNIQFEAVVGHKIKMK
Assay: HSD17B13 rapid-fire mass spectrometry assay (RF/MS assay)
Text: Recombinant human HSD17B13 was expressed and purified from sf9 cells at Charles River Labs (Saffron Walden, UK). Leukotriene B4 (Catalog #71160-24-2) and 12-oxoleukotriene B4 (Catalog #20140) were purchased from Cayman Chemicals (Ann Arbor, Michigan.). NAD+ (Catalog #N8285), BSA (Catalog #A7030), DMSO (Catalog #D2650), and Tween-20 (Catalog #11332465001) were purchased from Sigma (St. Louis, MO). Formic acid (Catalog #28905) was from ThermoFisher Scientific and 384 deep well PP microplates (Catalog #784261) were from Greiner Bio-One. In a typical IC50 assay performed in a 384w PP microplate, test compounds (0-100 μM) were incubated with HSD17B13 (80 nM), LTB4 (10 μM), and NAD+ (0.5 mM) in 10 μL assay buffer (20 mM Tris (pH 7.5), BSA (0.005%), and Tween-20 (0.01%)) at RT for 3 h. The assays were quenched by adding 20 μL of 0.15% aqueous formic acid and the plates were frozen at −80° C. RF/MS analysis was performed at PureHoney Technologies (Billerica, MA) on a RapidFire RF300 system (Agilent Technologies, Inc.) coupled to an API 4000 triple quadrupole mass spectrometer (Sciex) equipped with Agilent RapidFire cartridge type A (C4). The mobile phase was 0.09% formic acid and 0.01% trifluoracetic acid in water (Buffer A) and 0.09% formic acid and 0.01% trifluoracetic acid in 80% aqueous acetonitrile (Buffer B). The RapidFire method conditions were the following: 250 ms aspirate, 3000 ms load/desalt, 4000 ms elute, and 500 ms re-equilibrate. RF-MS/MS was performed in negative polarity (−4500 V), the source temperature was 650° C., and gas 1 and gas 2 settings for nitrogen were set to 50. The curtain gas and collision gas were also nitrogen and were set to 20 and 12, respectively. Leukotriene B4 (335.3) and 12-oxoLeukotriene B4 (333.3) SRM transitions were optimized with Discovery Quant software and extracted ion counts for these analytes were determined. Data Analysis. HSD17B13 enzyme activity was measured as percent conversion of extracted ion counts and normalized to high and low controls to determine percent residual activity at various concentrations of test compounds. […]

| pIC50 | Compound |
| --- | --- |
| > 7.00 | COc1ccc(C#Cc2nc(S(=O)(=O)Nc3ccc(C(=O)O)cc3OC)cs2)c(C2CC2)c1 [US12384753, Example 396] |
| > 7.00 | COc1cc(C(=O)O)ccc1NS(=O)(=O)c1coc(-c2ccc(F)cc2)n1 [US12384753, Example 417] |
| > 7.00 | COc1cc(C(=O)O)ccc1NS(=O)(=O)c1coc(-c2ccc(Cl)cc2)n1 [US12384753, Example 418] |
